The results in this text go back to patent publication US9956236B2, “Methods for increasing immune responses using agents that directly bind to and activate IRE-1” (Cornell University, priority 2011, dated 2018).

The subject of one test is CD86 and CD40. Put plainly: Co-stimulatory ligand (CD86 and CD40) expression with Nelfinavir and synthetic TLR4 agonist MPLA. The format is cell-based. The note with it: Nelfinavir plus TLR4 agonist MPLA compared to TLR4 agonist alone.
A further test has as its target recombinant IRE1 protein (Homo sapiens, UniProt O75460). Put plainly: In vitro fluorescent splicing reporter assay with recombinant IRE1 protein. The format is biochemical. The note with it: doses of PIs ranging from 20 uM to 0.63 uM; fluorescence over time. On the technique in general: A reporter such as luciferase makes a cellular process visible.
In a further test the test system is IL-6. Put plainly: IL-6 production with Nelfinavir and synthetic TLR4 agonist MPLA. It is filed as cell-based. The note with it: Nelfinavir plus TLR4 agonist MPLA compared to TLR4 agonist alone. From the text:
FIG. 1. HIV-protease inhibitors (PIs) trigger robust IRE1 and XBP1 activation and synergize with TLR4 activation to produce cytokines and co-stimulatory molecules. A) XBP1 mRNA maturation (XBP1s) in J774 cells stimulated with dose dependent concentrations of HIV-PIs (similar data were obtained in primary mouse M0s, and various M0 cell lines of human and mouse origin). B) Cell extracts of cells stimulated with Tunicamycin (TM) or HIV-protease inhibitors were monitored for IRE1 activation by phosphorylation in a Phos-tag SDS-PAGE gel, CHOP induction and ATF6a processing. C) Realtime PCR of CHOP induction by the ER-stress inducer TM and the HIV-PI Nelfinavir (NFR) was analyzed in PERK proficient and deficient MEFs. […]
XBP1 mRNA maturation (XBP1s) in J774 cells stimulated with dose dependent concentrations of HIV-PIs (similar data were obtained in primary mouse M0s, and various M0 cell lines of human and mouse origin) see FIG. 1, panel A. Cell extracts of cells stimulated with Tunicamycin (TM) or HIV-protease inhibitors were monitored for IRE1 activation by phosphorylation in a Phos-tag SDS-PAGE gel, CHOP induction and ATF6a processing, see FIG. 1, panel B. Realtime PCR of CHOP induction by the ER-stress inducer TM and the HIV-PI Nelfinavir (NFR) was analyzed in PERK proficient and deficient MEFs see FIG. 1, panel C.

recombinant IRE1 protein, sequence (O75460 19-977, species assumed): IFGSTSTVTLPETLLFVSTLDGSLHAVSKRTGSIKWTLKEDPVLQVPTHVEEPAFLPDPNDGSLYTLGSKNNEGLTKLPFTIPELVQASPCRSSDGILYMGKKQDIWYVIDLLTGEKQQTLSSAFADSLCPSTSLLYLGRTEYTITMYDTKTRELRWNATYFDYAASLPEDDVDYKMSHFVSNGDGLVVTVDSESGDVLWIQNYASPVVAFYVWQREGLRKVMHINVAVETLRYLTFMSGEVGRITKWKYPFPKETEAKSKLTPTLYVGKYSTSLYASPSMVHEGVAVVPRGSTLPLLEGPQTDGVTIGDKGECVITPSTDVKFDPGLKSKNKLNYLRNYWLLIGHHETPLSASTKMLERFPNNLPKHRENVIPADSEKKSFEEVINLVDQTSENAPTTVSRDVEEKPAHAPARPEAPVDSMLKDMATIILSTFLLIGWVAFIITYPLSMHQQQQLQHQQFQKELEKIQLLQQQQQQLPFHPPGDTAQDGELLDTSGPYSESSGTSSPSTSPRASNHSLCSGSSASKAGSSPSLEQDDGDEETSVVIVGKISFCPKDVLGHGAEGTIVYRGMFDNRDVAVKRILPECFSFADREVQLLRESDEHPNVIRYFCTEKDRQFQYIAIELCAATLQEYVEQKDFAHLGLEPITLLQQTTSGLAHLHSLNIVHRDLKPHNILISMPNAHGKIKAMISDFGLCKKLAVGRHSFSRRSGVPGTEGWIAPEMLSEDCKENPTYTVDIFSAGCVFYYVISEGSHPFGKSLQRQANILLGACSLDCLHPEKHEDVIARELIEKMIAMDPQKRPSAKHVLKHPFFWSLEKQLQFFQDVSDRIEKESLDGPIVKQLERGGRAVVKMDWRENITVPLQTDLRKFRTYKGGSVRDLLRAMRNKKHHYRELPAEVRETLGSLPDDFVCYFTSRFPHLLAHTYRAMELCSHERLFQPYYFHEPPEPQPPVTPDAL

As to `Cc1c(O)cccc1C(=O)N[C@@H](CSc1ccccc1)[C@H](O)CN1C[C@H]2CCCC[C@H]2C[C@H]1C(=O)NC(C)(C)C` [Nelfinavir], in the test on CD86 and CD40, the CD40 expression entry was “Increased” and the CD86 expression entry is “Increased”. The “induction of xbp1 splicing” value on recombinant IRE1 protein was “marked induction”. In addition, the IL-6 production entry in the test on IL-6 is reported as “Increased”.

Take `CC(C)CN(C[C@@H](O)[C@H](Cc1ccccc1)NC(=O)O[C@H]1CCOC1)S(=O)(=O)c1ccc(N)cc1` [amprenivir, amprenavir]: the “induction of xbp1 splicing” value at recombinant IRE1 protein was “not”.

For the molecule `CC(C)c1nc(CN(C)C(=O)N[C@H](C(=O)N[C@@H](Cc2ccccc2)C[C@H](O)[C@H](Cc2ccccc2)NC(=O)OCc2cncs2)C(C)C)cs1` [ritonivir, ritonavir], on recombinant IRE1 protein, the “induction of xbp1 splicing” value was “marked induction”.
